Several values for one entry are separate records, joined by “and”; a condition that tells them apart may be missing. Identical values can stand only once.

Broadly, the AUC(0-t) is the area under the concentration-time curve up to a stated or last time point. Broadly, the Cmax is the maximum level reached in the sampled fluid or tissue. Usually Tmax stands for the time at which the peak concentration occurs.

The conditions of series [1]: rat, oral capsule; 2 hours was the first measurement.
A short description of series [2]: Serum naltrexone levels of rats orally dosed with BB301 polyserine-naltrexone conjugate vs. naltrexone (ELISA). Conditions: rat; for Serum Concentrations of Individual Rats: equal dose (3.6 mg naltrexone). In general terms: ELISA stands for enzyme-linked immunosorbent assay.
The next series is described as follows: in vivo. Conditions: Sprague-Dawley, rat, po, 3.6 mg, Serum Concentrations of Individual Rats, oral capsule, dose equal to 3.6 mg naltrexone.
Where [3] appears, read: Sprague-Dawley, in vivo, po, 1.8 mg, Mean Serum Concentrations +/− SD, oral capsule, ½ dose (1.8 mg) at 0 hours and at […].
Where [4] appears, read: Sprague-Dawley, in vivo, po, 3.6 mg.
The mark [5] stands for this setting: Sprague-Dawley, in vivo, po, 3.6 mg, Mean Serum Concentrations +/− SD, oral capsule, equal dose at time zero.

On to `O=C1CC[C@@]2(O)[C@H]3Cc4ccc(O)c5c4[C@@]2(CCN3CC2CC2)[C@H]1O5` [Naltrexone], for which, in series [1], the “time at which serum levels spiked” value worked out at 2 h. For the same compound, the values for the concentration at 0.5 h in series [2] (setting [3]) and in series [2] (setting [5]) were 72 ng/mL and 115 ng/mL, respectively. In addition, the concentration at 3 h turned out to be 13 ng/mL in series [2] (setting [3]) and 55 ng/mL in series [2] (setting [5]). Moreover, the concentration at 5 h in series [2] (setting [3]) is 4 ng/mL; in series [2] (setting [5]), 56 ng/mL. The concentration at 8 h in series [2] (setting [3]) came out at 68 ng/mL; in series [2] (setting [5]), 7 ng/mL. This compound yielded a concentration at 11.5 h in series [2] (Sprague-Dawley, in vivo, po, 1.8 mg, Mean Serum Concentrations +/− SD, oral capsule, ½ dose (1.8 mg) at 0 hours and at […], 11.5 hours) of 11 ng/mL. The concentration at 24 h in series [2] (Sprague-Dawley, in vivo, po, 1.8 mg, Mean Serum Concentrations +/− SD, oral capsule, ½ dose (1.8 mg) at 0 hours and at […], 24 hours) came out at 6 ng/mL; in series [2] (Sprague-Dawley, in vivo, po, 3.6 mg, Mean Serum Concentrations +/− SD, oral capsule, equal dose at time zero, 24 hours), 2 ng/mL. In addition, the AUC(0-t) in series [2] (setting [4]) is 477 ng·h/mL. Also, the highest level in series [2] (setting [4]) (Cmax) was 124 ng/mL. In addition, the Tmax in series [2] (setting [4]) came out at 45 min. Further, the concentration at 12 h in series [2] (Sprague-Dawley, in vivo, po, 3.6 mg, Mean Serum Concentrations +/− SD, oral capsule, equal dose at time zero, 12 hours) stood at 2 ng/mL; in “in vivo” it was 1 ng/mL. Further, in series [2] (Sprague-Dawley, in vivo, po, 3.6 mg, Mean Serum Concentrations +/− SD, oral capsule, equal dose at time zero, 15 hours), the concentration at 15 h came out at 2 ng/mL. Also, the “time at which naltrexone serum levels spiked” value in series [2] (oral capsule, equal dose) stood at 0.5 h. Also, the “Serum Concentrations of Individual Rats” value was 2 ng/mL in series [2] (oral capsule, 12 hours); 1 ng/mL and 2 ng/mL in series [2] (oral capsule, 15 hours); 1 ng/ml (2×) and 3 ng/ml and 2 ng/ml in series [2] (oral capsule, 24 hours).
